This note sets out measurements from paper PMC12606464, “Investigating NFE2L1 activators for targeted protein aggregate clearance: a follow-up study” (RSC Medicinal Chemistry, 2025).

Test [1] deals with chymotrypsin-like activity of the 26S proteasome. In words: Proteasome activity assay in SH-SY5Y cell lysates. In kind it is cell-based, human. Conditions: for Geometric mean, Treatment (Control = 1): SH-SY5Y, Figure S6. As to the method:
Building on previous findings, we investigated how selected RUN compounds influence proteasomal function itself. Specifically, we examined the chymotrypsin-like activity of the 26S proteasome following a 16 hour treatment with 7.5 μM RUN compounds in the HEK293 cell line. […] In addition, two other cell lines, MCF7 and SH-SY5Y, were measured (see the SI, Fig. S6).
Figure S6: RUN compounds enhance chymotrypsin-like activity of the 26S proteasome in […]
Cells were treated with 5 µM RUN compounds for 16 hours, with DMSO (0.5%) as the vehicle control. Proteasome chymotrypsin-like activity was measured in cell lysates at 37 °C. Four independent experiments were conducted. Statistical analysis was performed using ratio paired t-tests corrected for multiple comparisons with the Holm-Šídák's method (α = 0.05). Detailed results of the analysis are shown in Supplementary Table S16. […]
2.7 Proteasome activity assay
The corresponding cell lines (HEK293, MCF7, or SH-SY5Y) were seeded into 6-well plates and allowed to adhere overnight under standard culture conditions. On the following day, HEK293 cells were treated with 7.5 µM RUN compounds, whereas MCF7 and SH-SY5Y cells were treated with 5 µM RUN compounds, for 16 hours each. After treatment, cells were harvested, resuspended in lysis buffer (50 mM HEPES, pH 7.5; 5 mM EDTA; 150 mM NaCl; 2 mM ATP; 1% Triton), and centrifuged at 15,000 rpm for 15 minutes at 4 °C. The resulting lysates (25 µg total protein) were incubated with 200 µM of the fluorogenic substrate Suc-Leu-Leu-Val-Tyr-AMC (Bachem, I1395) in assay buffer (50 mM Tris, pH 8.0; 10 mM MgCl₂; 1 mM ATP; 1 mM DTT) at 37 °C. Free AMC release was detected by measuring fluorescence at 360/460 nm. Results of RUN compounds were compared to the DMSO control using a ratio paired t-test corrected for multiple comparisons with the Holm-Šídák's method (α = 0.05) in GraphPad Prism (v 10.6.1).
2.8 XBP1-endoplasmic reticulum (ER) stress reporter assay […]
Two sets of comparisons: 1) […]
treatment with MG132 inhibitor or RUN compounds with DMSO control, 2) RUN compounds vs MG132, were done by two-way repeated-measures ANOVA with Geisser–Greenhouse correction, followed by Dunnett’s multiple comparisons test with individual variances in […]
HCT116 parental cells (WT) and two independent DDI2 knockout clones (KO 04 and KO 11), in which NFE2L1 activation is impaired, were transiently transfected with plasmids encoding either a non-aggregating EGFP-HttQ23 or an aggregation-prone EGFP-HttQ74 construct using Lipofectamine 2000 (Thermo Fisher Scientific) according to the manufacturer’s

Another test deals with Q35-YFP foci. The test can be described thus: Q35-YFP aggregation in C. elegans strain AM140. In kind it is in vivo, Caenorhabditis elegans. As to the method:
Furthermore, we explored the role of RUN-89 in preventing huntingtin protein aggregation in C. elegans. For this AM140 strain, stably expressing aggregation-prone 35-glutamine long repeats marked with yellow fluorescence protein (Q35-YFP) were used.[82,83] A six-day treatment with 50 μM RUN-89 or a vehicle control was conducted, followed by microscopy analysis. […] These findings highlight the substantial impact of RUN-89 on foci formation or persistence, further supporting its role in suppressing pathological clustering in protein aggregation diseases or reducing stress-response assemblies.
Fig. 5 RUN-89 prevents protein aggregation and increases stress resistance in C. elegans. (A) The AM140 strain expressing aggregation-prone Q35-YFP was treated with 50 μM RUN-89 or the vehicle for 6 days, followed by microscopy analysis. Overall, 959 Q35-YFP foci (DMSO = 517; RUN-89 = 442) were identified in 102 animals (DMSO: N = 3 populations, n = 55 animals in total; RUN-89: N = 3 populations, n = 47 animals in total). The two dashed horizontal lines indicate the interquartile range, and the thick horizontal line represents the median. The Kolmogorov–Smirnov test verified a significant reduction of surface and integrated optical density of foci after RUN-89 treatment. (B) Representative images of two animals per treatment condition. Images were taken on the same day, using identical settings for the instruments used. (C) Protective effect of RUN-89 against juglone and paraquat-induced stress. A synchronized population of N2 wild-type worms was exposed to 50 μM RUN-89 for 24 hours to protect against acute oxidative stress triggered by 180 μM juglone and 200 mM paraquat. The mortality was monitored hourly over a 12 hour period. […] Results were analyzed using the Kaplan–Meier method and are presented as survival percentages with standard errors. […]
Transgenic GR2183 worms carrying the reporter gene (rpt -3p::GFP) were exposed to RUN-89 for 24 hours and for AM140 (rmIs132 [unc-54p::Q35::YFP]) to aged 6 days under treatment to establish protein aggregation model. The worms were then anesthetized with […] sodium azide and placed on glass slides with 5% agar for fluorescence microscope observation. The expression of the rpt-3p::GFP reporter in worms was directly related to the intensity of green fluorescence. Images were captured using a Zeiss Axioskop 2 Plus fluorescence microscope and a Zeiss Axio Observer A1 microscope designed for epifluorescence. Image analysis was performed to assess variations in aggregation (both the count and volume of aggregates) and fluorescence signal intensity using ImageJ software (https://imagej.nih.gov/ij/). […]

Where [2] appears, read: AM140, 50 μM, six-day treatment, versus DMSO.

Consider `COc1ccc(/C=C2\CC(N)C/C(=C\c3ccc(OC)c(OC)c3)C2=O)cc1OC` (centres unmarked) [RUN-81], for which the “Geometric mean, Treatment (Control = 1)” value in test [1] is reported as 1.28.

Turning to `COc1ccc(/C=C2\CC(NC(=O)C3CCCC3)C/C(=C\c3ccc(OC)c(OC)c3)C2=O)cc1OC` (centres unmarked) [RUN-89], in test [1] (5 μM, 16 h), the “Proteasome chymotrypsin-like activity in SH-SY5Y cells” value is given as “higher median for RUN-89 without reaching statistical significance”. In addition, the “Geometric mean, Treatment (Control = 1)” value in test [1] is 1.88. In the test with Q35-YFP foci (setting [2]), the “Q35-YFP foci relative fluorescence density” value is reported as “significant decrease” and the “Q35-YFP foci surface area” value is “significant decrease”. The “Q35-YFP intensity, median” value in the test with Q35-YFP foci (C. elegans, Fig. 5A, DMSO median 1.00) was 0.51 fold change to DMSO median. Further, the “Q35-YFP foci surface, median” value in the test on Q35-YFP foci (C. elegans, Fig. 5A, DMSO median 20) came out at 17 voxels.

Regarding `COc1ccc(/C=C2\CC(NC(=O)c3ccccn3)C/C(=C\c3ccc(OC)c(OC)c3)C2=O)cc1OC` (centres unmarked) [RUN-94], the “Geometric mean, Treatment (Control = 1)” value in test [1] was 1.50.
